Drawing on patent US7585859B2, “PDE4B inhibitors and uses therefor” (Plexxikon, Inc., priority 2004, dated 2009), this text covers IC50 and inhibition in vivo for eleven compounds.

The target of experiment [1] is T1, PDE4B: The catalytic domain of human PDE4B from S152-S528 (Homo sapiens, UniProt Q07343).
T1 construct: His6 (N); thrombin cleavage site (N); made in house; host or cells: E. coli
Briefly: PDE4 IC50 determination by Scintillation Proximity Assay, PDE4B. The format is biochemical. A digest of the protocol: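 Enzyme was added to compound and [^3H]cAMP, then incubated 30 min at 30° (PDE4B 80 ng/ml; PDE4D 4 ng/ml). Product [^3H]AMP bound to SPA beads and was counted. IC50 was fitted by non-linear regression against DMSO and roflumilast controls.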
On the technique in general: SPA uses beads or plates that emit light when radiolabelled molecules are held near them.

In experiment [2] the test system is TNF alpha production in LPS-stimulated human blood (Buffy coat). Briefly: TNF alpha production by stimulation with LPS in whole blood cultures. In kind it is cell-based. A digest of the protocol:
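Human buffy coat blood, diluted 1:8 in RPMI with 2.5% heat-inactivated FBS, preincubated 1 h at 37 °C with serially 1:3-diluted compounds, then stimulated with LPS (100 ng/ml final) for 4 h. Supernatant TNFα quantified by sandwich ELISA, absorbance at 450 nm; IC50 values derived.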

The subject of experiment [3] is TNFα levels in serum of LPS-challenged rats. Briefly: Rat inhibition studies: serum TNFα after iv LPS challenge. The settings on record: read-out: % inhibition r TNFα; for inhibition in vivo at 100 mg/kg: 100 mg/kg po. In kind it is in vivo. An outline of the steps: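 Male CD (SD) rats, groups of 5, dosed po or ip; 2 h later iv LPS 0.1 mg/kg. Serum collected 2 h post-LPS unless otherwise indicated, TNFα measured by ELISA in duplicate. Values are percent decrease versus vehicle-dosed groups.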

[4] abbreviates: Table 1B, Formula I compounds, read-out: IC50 PDE4B.
Setting [5] is: Homo sapiens, Table 1B, Formula I compounds, read-out: IC50 h TNFα.
The mark [6] stands for this setting: po, 2 h, rat in vivo inhibition assay, 2 hr challenge delay.
[7] abbreviates: 2 h, rat, po, 2 hr challenge delay.
Setting [8] is: human whole blood, LPS 100 ng/ml, read-out: IC 50 vs. indicated assay h TNFα.
[9] abbreviates: po, 2 h, rat in vivo, 2 hr challenge delay, percent decrease in TNFα versus vehicle.
The mark [10] stands for this setting: second part of Table 2B (2-23 to 2-103), column 3, column is PDE4B in first part, read-out: IC 50 vs. indicated assay h TNFα.

Like-named read-outs stand apart in the source and are kept apart here.

T1 sequence (Q07343 with tags, fused parts or gaps): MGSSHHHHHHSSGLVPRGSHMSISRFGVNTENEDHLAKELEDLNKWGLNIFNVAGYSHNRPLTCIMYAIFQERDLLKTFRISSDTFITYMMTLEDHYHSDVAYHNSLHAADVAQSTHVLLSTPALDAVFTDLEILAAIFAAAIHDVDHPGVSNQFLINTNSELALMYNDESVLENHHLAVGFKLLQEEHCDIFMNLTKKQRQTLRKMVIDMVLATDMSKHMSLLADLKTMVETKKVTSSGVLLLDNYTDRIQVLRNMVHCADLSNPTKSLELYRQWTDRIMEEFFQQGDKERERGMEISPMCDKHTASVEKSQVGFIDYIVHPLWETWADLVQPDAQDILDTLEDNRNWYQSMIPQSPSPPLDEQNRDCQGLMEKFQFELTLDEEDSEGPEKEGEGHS

As for `N#Cc1c(Nc2ccccc2)sc(C(=O)C2CC2)c1N` [Compound 1-28, 4-Amino-5-cyclopropanecarbonyl-2-phenylamino-thiophene-3-carbonitrile], the IC50 in experiment [1] (setting [4]) and in experiment [2] (setting [5]) was below 10 µM each time. For the same compound, in experiment [3] (setting [6]), the inhibition in vivo at 100 mg/kg is below 20%.
On to `COc1ccc(C(=O)c2sc(Nc3ccccc3)c(C#N)c2N)cc1` [Compound 1-31], for which the IC50 in experiment [1] (setting [4]) and in experiment [2] (setting [5]) was below 10 µM in each case. Besides, the inhibition in vivo at 200 mg in experiment [3] (1 h, rat, 200 mg, po, 1 hr challenge delay) was below 20%. Moreover, the inhibition in vivo at 100 mg/kg in experiment [3] (setting [6]) was above 20%.
Take `CCOC(=O)c1c(NC2CCCC2)sc(C(=O)c2ccc(OC)cc2)c1N` [Compound 1-191, 4-Amino-2-cyclopentylamino-5-(4-methoxy-benzoyl)-thiophene-3-carboxylic acid ethyl ester]: the IC50 in experiment [1] (setting [4]) was below 10 µM; in experiment [2] (setting [5]), above 10 µM. Further, the inhibition in vivo at 50 mg in experiment [3] (setting [7]) was below 20%.
On the same counts, the results for `N#Cc1c(Nc2ccccc2)sc(C(=O)c2cc(-c3ccccc3)no2)c1N` [Compound 1-192, 4-Amino-2-phenylamino-5-(3-phenyl-isoxazole-5-carbonyl)-thiophene-3-carbonitrile] are below 10 µM, below 10 µM and below 20%.
For the compound `CC(C)Nc1sc(C(=O)c2cc(-c3ccccc3)no2)c(N)c1C#N` [Compound 1-205, 4-Amino-2-isopropylamino-5-(3-phenyl-isoxazole-5-carbonyl)-thiophene-3-carbonitrile], the IC50 in experiment [1] (setting [4]) is below 10 µM; in experiment [2] (setting [5]), above 10 µM. Moreover, the inhibition in vivo at 100 mg/kg in experiment [3] (setting [6]) is below 20%.
With `CC(C)Nc1sc(C(=O)c2cc(-c3ccc(Cl)cc3)no2)c(N)c1C#N` [Compound 1-212, 4-Amino-5-[3-(4-chloro-phenyl)-isoxazole-5-carbonyl]-2-isopropylamino-thiophene-3-carbonitrile], the IC50 was below 10 µM in experiment [1] (setting [4]) and above 10 µM in experiment [2] (setting [5]). The inhibition in vivo at 90 mg in experiment [3] (2 h, rat, 90 mg, po, 2 hr challenge delay) is above 20%.
`CC(C)CNc1sc(C(=O)c2cc(-c3ccccc3)no2)c(N)c1C(N)=O` [Compound 1-236, 4-Amino-2-isobutylamino-5-(3-phenyl-isoxazole-5-carbonyl)-thiophene-3-carboxylic acid amide]: the IC50 was below 10 µM in experiment [1] (setting [4]) and above 10 µM in experiment [2] (setting [5]). Further, the inhibition in vivo at 50 mg in experiment [3] (2 h, rat, ip, 2 hr challenge delay) is above 20%; in experiment [3] (setting [7]), above 20%.
Consider `NC(=O)c1c(NC2CCCC2)sc(C(=O)c2cc(-c3ccccc3)no2)c1N` [Compound 1-251, 4-Amino-2-cyclopentylamino-5-(3-phenyl-isoxazole-5-carbonyl)-thiophene-3-carboxylic acid amide], for which the IC50 in experiment [1] (setting [4]) was below 10 µM; in experiment [2] (setting [5]), above 10 µM. The inhibition in vivo at 50 mg in experiment [3] (setting [7]) is above 20%.
Take `Nc1nc(Nc2ccccc2F)sc1C(=O)c1cc(-c2ccccc2)no1` [Compound 2-6, [4-Amino-2-(2-fluoro-phenylamino)-thiazol-5-yl]-(3-phenyl-isoxazol-5-yl)-methanone]: the IC50 is below 10 µM in experiment [1] (first part of Table 2B (2-1 to 2-22), read-out: IC 50 vs. indicated assay PDE4B) and above 10 µM in experiment [2] (setting [8]). Besides, the inhibition in vivo at 100 mg/kg in experiment [3] (setting [9]) was above 20%.
Consider `Nc1nc(Nc2ccc(Cl)cc2)sc1C(=O)c1cccc(C(F)(F)F)c1` [Compound 2-23, [4-Amino-2-(4-chloro-phenylamino)-thiazol-5-yl]-(3-trifluoromethyl-phenyl)-methanone], for which the IC50 was below 10 µM in experiment [1] (setting [10]) and above 10 µM in experiment [2] (setting [8]). The inhibition in vivo at 100 mg/kg in experiment [3] (setting [9]) was below 20%.
`Nc1nc(NC2CCCC2)sc1C(=O)c1cccc(Cl)c1` [Compound 2-80, (4-Amino-2-cyclopentylamino-thiazol-5-yl)-(3-chloro-phenyl)-methanone]: the IC50 in experiment [1] (setting [10]) and in experiment [2] (setting [8]) was below 10 µM throughout. The inhibition in vivo at 100 mg/kg in experiment [3] (setting [9]) is above 20%.
